From patent US20060025485A1, “Hydroxybenazamide compounds for treatment of cancer” (priority 2004, published 2006)
“Also recorded” adds a separate entry of the source. Where two headings read alike, the source gives them in different places.

What was measured:
[1] = tested on: H727 pulmonary carcinoid cells; assay: MTT cell proliferation assay, H727 cells; assay type: cell-based, human; conditions: 100 μM, to day 16, versus DMSO
Method: MTT Cell Proliferation Assay. […] Cells were trypsinized and plated in triplicate to 24 wells plates and allowed to adhere overnight. […] Cells were incubated and maintained with change of treatments at 2 days. Cell growth rates were analyzed after the addition of MTT reagent to the cultured cells following manufacturer's instructions. Absorbance was determined using spectrophotometer at a wave length of 540 nm.

HepG2 = HepG2 MTT Assay; assay type: cell-based; conditions: HepG2, three concentrations
Method: FIG. 18—HepG2 MTT Assay. The MTT assay is a laboratory test for measuring cellular proliferation (cell growth). MTT is added to a cell culture and is modified into a dye by enzymes associated with metabolic activity in a live cell. MTT is short for 3-(4,5-dimethylthiazol-2-yl)-2,5-diphenyltetrazolium bromide.
(§1) The results were assay using standard MTT, Western blot and cytoxocity assays.

p21 = assay: Western analysis of cell cycle inhibitor p21, H727 cells; assay type: cell-based, human; conditions: 20 μM and 100 μM, 2 days
Method: (§2) ZM 336372 treatment. H727 and BON cells were plated at 50-60% confluence in 100 mm cell culture dishes and incubated overnight.
(§3) Western blot analysis. Cellular extracts were prepared and quantified by BCA protein assay kit (Pierce, Rockford, Ill.) as previously described (Sippel et al., 2003). 30-50 μg of denatured proteins from each sample underwent electrophoresis on a SDS-polyacrylamide gel and transferred to a nitrocellulose membranes (Schleicher and Schuell, Keene, N.H.). Membranes were blocked for 1 hr in milk solution (1×PBS, 5% non-fat dry milk, 0.05% Tween-20) and then incubated at 4° C. overnight with primary antibodies. The following primary antibody dilutions were used: phospho-ERK 1/2 (1:1,000); phospho-MEK (1:1,000); phospho-Raf-1 (Serine338) (1:1,000); p21 and p18, (1:1,000); (Cell Signal Technology, Beverly, Mass.), Chromogranin A (1:2,000; Zymed Laboratories, San Francisco, Calif.); MASH-1 (1:1000, BD Pharmingen) and G3PDH (1:10,000; Trevigen, Gaithersburg, Md.). After primary antibody incubation, membranes were washed 3×5 min in PBS-T wash buffer (1×PBS, 0.05% Tween 20). Then the membranes were incubated with either 1:2,000 dilution of goat anti-rabbit or goat anti-mouse secondary antibody (Cell Signal Technology, Beverly, Mass.) depending on the source of the primary antibody for 1 hr at room temperature. […]

Panc-1 = Panc-1 MTT Assay; assay type: cell-based; parameters: dose or concentration left out as unconfirmed; conditions: Panc-1, three concentrations
Raf-1/MEK/ERK [2] = assay: Western analysis of Raf-1 pathway activation, BON cells; assay type: cell-based, human; conditions: 2 days
Method: (§4) H727 and BON cells were plated at 50-60% confluence in 100 mm cell culture dishes and incubated overnight.
(§5) Western blot analysis. Cellular extracts were prepared and quantified by BCA protein assay kit (Pierce, Rockford, Ill.) as previously described (Sippel et al., 2003). 30-50 μg of denatured proteins from each sample underwent electrophoresis on a SDS-polyacrylamide gel and transferred to a nitrocellulose membranes (Schleicher and Schuell, Keene, N.H.). Membranes were blocked for 1 hr in milk solution (1×PBS, 5% non-fat dry milk, 0.05% Tween-20) and then incubated at 4° C. overnight with primary antibodies. The following primary antibody dilutions were used: phospho-ERK 1/2 (1:1,000); phospho-MEK (1:1,000); phospho-Raf-1 (Serine338) (1:1,000); p21 and p18, (1:1,000); (Cell Signal Technology, Beverly, Mass.), Chromogranin A (1:2,000; Zymed Laboratories, San Francisco, Calif.); MASH-1 (1:1000, BD Pharmingen) and G3PDH (1:10,000; Trevigen, Gaithersburg, Md.). After primary antibody incubation, membranes were washed 3×5 min in PBS-T wash buffer (1×PBS, 0.05% Tween 20). Then the membranes were incubated with either 1:2,000 dilution of goat anti-rabbit or goat anti-mouse secondary antibody (Cell Signal Technology, Beverly, Mass.) depending on the source of the primary antibody for 1 hr at room temperature. Membranes were washed 3×5 min in PBS-T wash buffer and developed by Immunstar™ HRP (Bio-Rad Laboratories, Hercules, Calif.) according to the manufacturer's directions. For the detection of hASH1 protein, membranes were developed with SuperSignal West Femto chemiluminescence reagent (Pierce).

HT-29 = HT-29 MTT Assay; assay type: cell-based; conditions: HT-29, varying concentrations
Chromogranin A = assay: Western analysis of CgA, BON cells; assay type: cell-based, human; conditions: 20 to 100 μM, 2 days
Method: as §2, §3

[3] = tested on: H727 pulmonary carcinoid cells; assay: cell culture pictures of H727 cells; assay type: cell-based, human; conditions: 100 μM, days 2, 4 and 6, versus DMSO
Method: Cell culture. Human pulmonary carcinoid cells (NCI-H727) were obtained from American Type Culture Collection (Manassas, Va.) and human pancreatic carcinoid tumor cells, BON a generous gift of Drs. Evers and Townsend (Parekh et al., 1994), were maintained in RPMI 1640 and D-MEM-F12 media (Life Technologies, Rockville, Md.) respectively supplemented with 10% Fetal Bovine Serum (Sigma, St. Louis, Mo.), 100 IU/ml penicillin and 100 μg/ml streptomycin (Life Technologies) in a humidified atmosphere of 5% CO2 in air at 37° C. The maintenance of BON-raf cells and the activation of Raf-1 were followed as described previously (Sippel et al., 2003; Sippel and Chen, 2002; McMahon, 2001).
as §2

MiaPaCa-2 = assay: cell morphology after 9-day treatment, MiaPaCa-2 cells; assay type: cell-based
Text: as §1

pMEK and p-MAPK = assay: Western blot of pMEK and p-MAPK, HT-29 cells; assay type: cell-based
Text: as §1

hASH1 = assay: Western analysis of hASH1, BON cells; assay type: cell-based, human; conditions: 20 μM and 100 μM, 2 days
Method: as §2, §3

Raf-1/MEK/ERK [4] = assay: Western analysis of Raf-1 pathway activation, H727 cells; assay type: cell-based, human
Method: as §4, §5

raf-1 = conditions: cited from earlier work
[5] = tested on: HT-29 cells, a colon cancer cell line; assay: cell morphology after 9-day treatment, HT-29 cells; assay type: cell-based
Text: as §1

[6] = Drug toxicity assay, propidium iodide exclusion, BON cells; assay type: cell-based; conditions: human, 63 to 500 μM, read-out: viable cells by PI exclusion
Method: Drug Toxicity Assay. Briefly, cells were trypsinized and plated in a 6-well plate at 1-2×10^6 in triplicate and allowed to adhere overnight. […] As a control, DMSO was added. After incubation, the media was removed and cells were trypsinized and added to removed media. Cells were incubated on ice and 2.5 μg/ml Propidium Iodide (Sigma, St. Louis, Mo.) was added five minutes before flow cytometry (Ballestrero et al., 2004). Data was acquired using a FACSCalibur benchtop flow cytometer (Becton Dickenson, San Jose, Calif.) using CellQuest acquisition and analysis software.

With Cc1ccc(NC(=O)c2cccc(N(C)C)c2)cc1NC(=O)c1ccc(O)cc1 [ZM336372, N-[5-(dimethyl-aminobensamido)-2-methylphenyl]-4-hydroxybenzamide] the “H727 cell proliferation (MTT)” value [1] was “clear suppression of growth; also recorded: growth suppressed; also recorded: inhibited”, the “cellular proliferation (MTT)” value (HepG2) was “effects at low concentrations; also recorded: reduction in cellular proliferation” and the “IC50 (cytotoxicity)” value (H727 cells) was “did not produce enough cellular cytotoxicity to estimate an IC50”. For the same compound, the p21 expression (p21) was “induced; also recorded: significant induction”, the “cellular proliferation (MTT)” value (Panc-1) was “inhibition at the highest concentration; also recorded: clear decrease” and the “phosphorylated Raf-1 at serine 338 (pRaf-1)” value (Raf-1/MEK/ERK [2]; 20 μM and 100 μM) was “dose dependent increases”. For the same compound, the “phosphorylated ERK 1/2 (pERK, pMAPK)” value (Raf-1/MEK/ERK [2]; 20 to 100 μM) was “increased phosphorylation of both MEK and MAPK; also recorded: strong activation of ERK 1/2 and MEK 1/2; also recorded: increasing phosphorylated MEK and MAP kinase; also recorded: dose dependent increases”, the “phosphorylated MEK 1/2 (pMEK)” value (Raf-1/MEK/ERK [2]; 20 to 100 μM) was “increased phosphorylation of both MEK and MAPK; also recorded: strong activation of ERK 1/2 and MEK 1/2; also recorded: increasing phosphorylated MEK and MAP kinase; also recorded: dose dependent increases” and the “cellular proliferation (MTT)” value (HT-29) was “effects at low concentrations; also recorded: effective at decreasing cellular proliferation”. For the same compound, the “CgA (chromogranin) level” value (Chromogranin A) was “decreased secretion of chromogranin; also recorded: reduction in both CgA and hASH1; also recorded: decreasing expression of chromogranin at higher concentrations; also recorded: dose dependent decrease”, the “growth of H727 cells in culture” value [3] was “never reached confluence; also recorded: clear difference in growth; also recorded: paucity of cells reaching confluence” and the cell death (MiaPaCa-2; MiaPaCa-2, 100 μM, 9-day cycle) was “significant cell death”. For the same compound, the “cell numbers in culture” value (MiaPaCa-2; MiaPaCa-2, 100 microM, day 9) was “dramatic decrease in cell numbers”, the p-MAPK level (pMEK and p-MAPK) was “increase in the levels of both pMEK and p-MAPK” and the pMEK level (pMEK and p-MAPK) was “increase in the levels of both pMEK and p-MAPK”. For the same compound, the “IC50 (cytotoxicity)” value (BON cells) was “did not produce enough cellular cytotoxicity to estimate an IC50”, the hASH1 level (hASH1) was “reduction in both CgA and hASH1; also recorded: dose dependent decrease” and the “phosphorylated ERK 1/2 (pERK, pMAPK)” value (Raf-1/MEK/ERK [4]; 20 μM and 100 μM, 2 days) was “elevated phosphorylated MAPK; also recorded: activation of MEK 1/2 and ERK 1/2; also recorded: dose dependent increases”. The “phosphorylated MEK 1/2 (pMEK)” value (Raf-1/MEK/ERK [4]; 20 μM and 100 μM, 2 days) was “activation of MEK 1/2 and ERK 1/2; also recorded: dose dependent increases”, the “phosphorylated Raf-1 at serine 338 (pRaf-1)” value (Raf-1/MEK/ERK [4]; 20 μM and 100 μM, 2 days) was “phosphorylated at serine 338; also recorded: dose dependent increases” and the “phosphorylated MEK 1/2 over time” value (Raf-1/MEK/ERK [4]; 100 μM, days 2, 4 and 6) was “prolonged; also recorded: greater than controls out to 6 days”. For the same compound, the “activation of raf-1” value (raf-1; COS1 cells) was over 100 fold, the “activation of raf-1” value (raf-1; NIH3T3 cells) was over 100 fold and the “activation of raf-1” value (raf-1; PC12 cells) was over 100 fold. The “raf-1 activation compared with EGF stimulation” value (raf-1; Swiss 3T3 cells) was “much higher than that attained after stimulation with epidermal growth factor (EGF)”, the “time for which induction of raf-1 was sustained” value (raf-1; Swiss 3T3 cells) was “at least 3 hours” and the “time of exposure after which induction of raf-1 occurred” value (raf-1; Swiss 3T3 cells) was 60 min. The “activation of raf-1” value (raf-1; human 293 cells) was over 100 fold, the cell death ([5]; HT-29, 100 μM, 9-day cycle) was “significant cell death” and the “number of cells in culture” value ([5]; HT-29, 50 microM, day 9, versus control) was “dramatic difference in the number of cells present at day 9”. The cytopathology ([5]; HT-29, low concentrations, 9-day cycle) was “cytopathology at low concentrations” and the viability at 2 days [6] was about 70%.
